Literature values in patent US20120252862A1, “Dissolvable Film Strip Comprising Natural Components” (YEDITEPE UNIVERSITES, priority 2009, published 2012).

Conditions: single oral dose

**Q.** Which “Dose reported safe to be applied” value does the source give for `O=C(O[C@@H]1Cc2c(O)cc(O)cc2O[C@@H]1c1cc(O)c(O)c(O)c1)c1cc(O)c(O)c(O)c1` [EGCG, epigallocatechin gallate] here?
**A.** The value was “up to 1600 mg”.
